Results taken from patent publication US5223515A, “Injectable solution containing a pyridyl methylsulfinylbenzimidazole” (Takeda Chemical Industries, Ltd., priority 1988, dated 1993).
Values after ≈ are worked out from the molar mass of the structure shown.

Key:
[1] = Solubility of Compound (I-1) in water at different pH; type: physicochemical
[2] = Stability of Compound (I-1) in aqueous solution; type: physicochemical
[3] = Example 2 / Table 2: stability of Compound (I-1) in the solution state (2 mg/ml, mixed solvents); type: physicochemical
Experimental: Ethanol, polyethylene glycol 400, propylene glycol and water were mixed at the composition ratios as shown in Table 2 illustrated below, and 2 mg of Compound (I-1) was dissolved in 1 ml each of the resulting solvents, respectively, followed by adjustment to pH 9.0 with 5N-aqueous sodium hydroxide solution. As a control, there were prepared a suspension of 2 mg of Compound (I-1) in 1 ml of water being adjusted to pH 9.0 with 5N-aqueous sodium hydroxide solution and an aqueous solution of 2 mg of Compound (I-1) in 1 ml of 0.01N aqueous sodium hydroxide solution.

[4] = Example 3 / Table 3: stability of Compound (I-1) in the solution state (5 mg/ml, mixed solvents); type: physicochemical
Experimental: Ethanol, polyethylene glycol 400, propylene glycol and water were mixed at the composition ratios as shown in Table 3 illustrated below, and 5-mg of Compound (I-1) was dissolved in 1 ml each of the resulting solvents, respectively, followed by adjustment to pH 9.0 with 5N-aqueous sodium hydroxide solution. As a control, there were prepared a suspension of 5 mg of Compound (I-1) in 1 ml of water being adjusted to pH 9.0 with 5N-aqueous sodium hydroxide solution and an aqueous solution of 5 mg of Compound (I-1) in 1 ml of 0.02N aqueous sodium hydroxide solution. […] (A control of the suspension was not subjected to sterile-filtration).
These test specimens as filled into ampoules were investigated for each item of appearance, pH and clarity immediately after preparation and after storage at 25° C.

[5] = Example 4 / Table 4: stability of lyophilized Compound (I-1) after being dissolved in vials; type: physicochemical; conditions: for Solubility: lyophilized powder
Experimental: A 1000 mg quantity of Compound (I-1) was dispersed in distilled water for
injection, and 3 ml of 1N-aqueous sodium hydroxide solution was added to
dissolve the Compound (I-1), followed by addition of water to make up the
total of 50 ml and sterile filtration by the conventional method. The
resulting filtrate was filled in 1 ml portions into vials of a 12 cm^3
capacity, followed by lyophilization by means of the conventional
technique. The lyophilized powder as contained in vials was dissolved in
in Solvent A (which was composed of 50 mg of N-methylglucamine, 0.27 ml of
1N-hydrochloric acid and 2 ml of propylene glycol being admixed with
ethanol to make up the total of 4 ml), Solvent B (which was composed of 50
mg of N-methylglucamine, 0.27 ml of 1N-hydrochloric acid, 1.2 ml of
polyethylene glycol 400 and 1.2 ml of ethanol being admixed with distilled
water for injection to make up the total of 4 ml), Solvent C (which was
composed of 50 mg of N-methylglucamine, 0.27 ml of 1N-hydrochloric acid,
1.2 ml of ethanol and 1.2 ml of propylene glycol being admixed with
distilled water for injection to make up the total of 4 ml and Solvent D
(which was composed of 50 mg of N-methylglucamine, 0.27 ml of
1N-hydrochloric acid and 2.5 ml of polyethylene glycol 400 bing admixed
with distilled water for injection to make up the total of 4 ml),
respectively, to perform inspection for their solubilities as well as to
conduct investigation into appearance, clarity and contents immediately
after dissolution and after storage at 25° C. for 24 hours.

[6] = Example 1 / Table 1: stability of Compound (I-1) in the solution state (ethanol, propylene glycol); conditions: for Content: HPLC
Source text: Note, *As measured by use of highperformance liquid chromatography (HPLC)
chromatographic conditions of HPLC:
Carrier; Nucleosil 5 C18 (supplied by GasChro Kogyo K.K. of Japan)
Solvent; Methanol:water:triethylamine (60:40:1, pH 7)
Detection method; UV spectrophotometry at 285 nm

[7] = control: 2 mg in 0.01 N aq. sodium hydroxide 1 ml, after preparation
[8] = control: 2 mg in 0.01 N aq. sodium hydroxide 1 ml, after storage at 25° C./24 hrs.
[9] = 5 mg, PEG-400 0.3 ml, ethanol 0.3 ml, water 0.4 ml, after preparation
[10] = 5 mg, PEG-400 0.4 ml, water 0.6 ml, after preparation
[11] = 5 mg, ethanol 0.3 ml, propylene glycol 0.3 ml, water 0.4 ml, after preparation
[12] = 5 mg, ethanol 0.6 ml, water, after preparation
[13] = control: 5 mg in 0.02 N aq. sodium hydroxide 1 ml, after preparation
[14] = control: 5 mg in 0.02 N aq. sodium hydroxide 1 ml, after storage at 25° C./24 hrs.
[15] = Solvent A, after storage at 25° C. for 24 hrs.
[16] = Solvent B, after storage at 25° C. for 24 hrs.
[17] = Solvent C, after storage at 25° C. for 24 hrs.
[18] = Solvent D, after storage at 25° C. for 24 hrs.
[19] = Solvents A-D, after storage for 24 hours
[20] = 2 mg in ethanol 1 ml, after preparation
[21] = 2 mg in ethanol 1 ml, after storage at 25° C./24 hrs.
[22] = 2 mg in propylene glycol 1 ml, after preparation
[23] = 2 mg in propylene glycol 1 ml, after storage at 25° C./24 hrs.

Cc1c(OCC(F)(F)F)ccnc1C[S+]([O-])c1nc2ccccc2[nH]1 (centres unmarked) [Compound (I-1), 2-(3-methyl-4-trifluoroethoxy-2-pyridyl)methylsulfinylbenzimidazole]
Solubility ([1]; pH 11, water): 1 mg/mL (≈ 2.71 mM) | Solubility ([1]; pH 13, water): 33 mg/mL (≈ 89.3 mM) | stability in an aqueous solution ([2]; alkaline solution): satisfactorily stable | appearance of aqueous solution ([2]; neutral to acidic range, short period of time): dark purple | stability in an aqueous solution ([2]; pH decreased to the neutral to acidic range): less stable | Appearance ([3]; 2 mg, PEG-400 0.05 ml, ethanol 0.35 ml, water 0.6 ml, after preparation): Colorless | pH ([3]; 2 mg, PEG-400 0.05 ml, ethanol 0.35 ml, water 0.6 ml, after preparation (adjusted)): 9.0 | Content ([3]; 2 mg, PEG-400 0.05 ml, ethanol 0.35 ml, water 0.6 ml, after preparation (taken as 100.0%)): 100.0% | Content ([3]; 2 mg, PEG-400 0.05 ml, ethanol 0.35 ml, water 0.6 ml, after storage at 25° C./24 hrs.): 98.0% | Appearance ([3]; 2 mg, PEG-400 0.05 ml, propylene glycol 0.35 ml, water 0.6 ml, after preparation): Colorless | pH ([3]; 2 mg, PEG-400 0.05 ml, propylene glycol 0.35 ml, water 0.6 ml, after preparation (adjusted)): 9.0 | Content ([3]; 2 mg, PEG-400 0.05 ml, propylene glycol 0.35 ml, water 0.6 ml, after preparation (taken as 100.0%)): 100.0% | Content ([3]; 2 mg, PEG-400 0.05 ml, propylene glycol 0.35 ml, water 0.6 ml, after storage at 25° C./24 hrs.): 94.4% | Appearance ([3]; 2 mg, PEG-400 0.4 ml, water 0.6 ml, after preparation): Colorless | pH ([3]; 2 mg, PEG-400 0.4 ml, water 0.6 ml, after preparation (adjusted)): 9.0 | Content ([3]; 2 mg, PEG-400 0.4 ml, water 0.6 ml, after preparation (taken as 100.0%)): 100.0% | Content ([3]; 2 mg, PEG-400 0.4 ml, water 0.6 ml, after storage at 25° C./24 hrs.): 91.8% | Appearance ([3]; 2 mg, ethanol 0.5 ml, propylene glycol 0.5 ml, after preparation): Colorless | pH ([3]; 2 mg, ethanol 0.5 ml, propylene glycol 0.5 ml, after preparation (adjusted)): 9.0 | Content ([3]; 2 mg, ethanol 0.5 ml, propylene glycol 0.5 ml, after preparation (taken as 100.0%)): 100.0% | Content ([3]; 2 mg, ethanol 0.5 ml, propylene glycol 0.5 ml, after storage at 25° C./24 hrs.): 98.0% | dissolution of control specimens ([3]; control in water adjusted to same pH as other test specimens, 2 mg/ml): failed to allow adequate dissolution | pH needed to secure dissolution of control specimens ([3]; control, 2 mg/ml): not less than 11 | Appearance [3, 7]: Colorless | pH [3, 7]: 11.4 | Content ([3]; control: 2 mg in 0.01 N aq. sodium hydroxide 1 ml, after preparation (taken as 100.0%)): 100.0% | Appearance [3, 8]: Colorless | Content [3, 8]: 92.5% | pH ([3]; control: 2 mg in water 1 ml, after preparation (adjusted)): 9.1 | Appearance [4, 9]: Colorless | Clarity [4, 9]: Clear | pH ([4]; 5 mg, PEG-400 0.3 ml, ethanol 0.3 ml, water 0.4 ml, after preparation (adjusted)): 9.0 | Clarity ([4]; 5 mg, PEG-400 0.3 ml, ethanol 0.3 ml, water 0.4 ml, after storage at 25° C./24 hrs.): Clear | Appearance [4, 10]: Colorless | Clarity [4, 10]: Clear | pH ([4]; 5 mg, PEG-400 0.4 ml, water 0.6 ml, after preparation (adjusted)): 9.0 | Clarity ([4]; 5 mg, PEG-400 0.4 ml, water 0.6 ml, after storage at 25° C./24 hrs.): Clear | Appearance [4, 11]: Colorless | Clarity [4, 11]: Clear | pH ([4]; 5 mg, ethanol 0.3 ml, propylene glycol 0.3 ml, water 0.4 ml, after preparation (adjusted)): 9.0 | Clarity ([4]; 5 mg, ethanol 0.3 ml, propylene glycol 0.3 ml, water 0.4 ml, after storage at 25° C./24 hrs.): Clear | Appearance [4, 12]: Colorless | Clarity [4, 12]: Clear | pH ([4]; 5 mg, ethanol 0.6 ml, water, after preparation (adjusted)): 9.0 | Clarity ([4]; 5 mg, ethanol 0.6 ml, water, after storage at 25° C./24 hrs.): Clear | dissolution of control specimens ([4]; control in water adjusted to same pH as other test specimens, 5 mg/ml): failed to allow adequate dissolution | pH needed to secure dissolution of control specimens ([4]; control, 5 mg/ml): not less than 11 | Appearance [4, 13]: Colorless | Clarity [4, 13]: Clear | pH [4, 13]: 11.6 | Appearance [4, 14]: Colorless | Clarity [4, 14]: Clear | pH ([4]; control: 5 mg in water 1 ml, after preparation (adjusted)): 8.9 | pH after dissolution ([5]; Solvent A): 8.7 | Appearance ([5]; Solvent A, after dissolution): Colorless | Clarity ([5]; Solvent A, after dissolution): Clear | Content ([5]; Solvent A, after dissolution (taken as 100%)): 100% | Clarity [5, 15]: Clear | Content [5, 15]: 97.0% | pH after dissolution ([5]; Solvent B): 9.0 | Appearance ([5]; Solvent B, after dissolution): Colorless | Clarity ([5]; Solvent B, after dissolution): Clear | Content ([5]; Solvent B, after dissolution (taken as 100%)): 100% | Clarity [5, 16]: Clear | Content [5, 16]: 96.5% | pH after dissolution ([5]; Solvent C): 9.0 | Appearance ([5]; Solvent C, after dissolution): Colorless | Clarity ([5]; Solvent C, after dissolution): Clear | Content ([5]; Solvent C, after dissolution (taken as 100%)): 100% | Clarity [5, 17]: Clear | Content [5, 17]: 96.7% | pH after dissolution ([5]; Solvent D): 9.0 | Appearance ([5]; Solvent D, after dissolution): Colorless | Clarity ([5]; Solvent D, after dissolution): Clear | Content ([5]; Solvent D, after dissolution (taken as 100%)): 100% | Clarity [5, 18]: Clear | Content [5, 18]: 96.1% | Appearance ([5]; Solvents A, B, C, D (one spanning entry), after storage at 25° C. for 24 hrs.): Slightly to lightly green-yellow | change in content [5, 19]: decrease slightly | change in the clarity [5, 19]: no change | changes in appearance ([5]; Solvents A-D, immediately after dissolution and after storage for 24 hours): slight changes | dissolution of lyophilized powder ([5]; all of these solvents (A-D)): dissolved quickly | solubilities of lyophilized powder ([5]; all of these solvents (A-D)): excellent solubilities | Solubility ([5]; Solvent A (propylene glycol/ethanol)): Good | Solubility ([5]; Solvent B (PEG 400/ethanol/water)): Good | Solubility ([5]; Solvent C (ethanol/propylene glycol/water)): Good | Solubility ([5]; Solvent D (PEG 400/water)): Good | Appearance [6, 20]: Colorless | Clarity [6, 20]: Clear | Content ([6]; 2 mg in ethanol 1 ml, after preparation (taken as 100.0%)): 100.0% | Appearance [6, 21]: Yellowish | Clarity [6, 21]: Clear | Content [6, 21]: 99.2% | Appearance [6, 22]: Colorless | Clarity [6, 22]: Clear | Appearance [6, 23]: Light red-purple | Clarity [6, 23]: Clear | change in appearance ([6]; ethanol and propylene glycol, after storage at 25° C. for 24 hours): slight change
